Tests used:
[1] = test system: α-GalCer-stimulated iNKT cells; assay: Inhibition of in vitro iNKT activation: splenocytes stimulated with α-GalCer, cytokine ELISA; format: cell-based, BALB/cJ mice
Protocol: (§1) FIGS. 1A and 1B show splenocyte cells (5×10^6/ml) pooled from BALB/cJ mice (n=4) that were cultured in anti-CD3 mAb (2 μg/ml)-precoated 24-well plates in complete RPMI±increasing concentrations of DPPE-PEG350, or that were cultured in 24-well plates in complete RPMI±α-GalCer (100 ng/ml)±increasing concentrations of DPPE-PEG350. After 48 h, supernatants were gathered and examined for IL-4 and INF-γ by ELISA. ELISA data are representative of three separate experiments each and are shown as mean±SD for triplicate samples.
(§2) Inhibition of in vitro iNKT activation with DPPE-PEG-Splenocytes cells (5×10^6/ml) pooled from BALB/cJ mice (n=4) were cultured in anti-CD3 mAb (2 μg/ml)-precoated 24-well plates in complete RPMI±increasing concentrations of DPPE-PEG350, or cultured in 24-well plates in complete RPMI±KRN7000 (100 ng/ml)±increasing concentrations of DPPE-PEG350. After 48 h, supernatants were gathered and examined for IL-4 and INF-γ by ELISA as described (35).
(§3) Phosphatidylethanolamine and DPPE-PEG bind to CD1d and prevent iNKT cell activation (2-5). To determine whether activation of iNKT cells by α-GalCer could specifically be inhibited by DPPE-PEG, splenocytes were incubated with α-GalCer (100 ng/ml) or plate-bound anti-CD3. […] Culture supernatants were collected and IL-2 expression expression analyzed with IL-2 dependant cell line CTLL-2. […]

[2] = test system: anti-CD3 activated T cells; assay: Splenocytes cultured on plate-bound anti-CD3 mAb, cytokine ELISA; format: cell-based, BALB/cJ mice; settings: plate-bound anti-CD3 2 μg/ml, at concentrations that significantly inhibited α-GalCer-stimulated secretion
Protocol: as §1, §2, §3

[3] = test system: iNKT cell hybridoma line DN32; assay: DN32 NKT hybridoma activation by α-GalCer, IL-2 release read with CTLL-2 cells; format: cell-based; settings: 200 μg/ml for 4 hours, then titrating α-GalCer 48 h; particularly at suboptimal α-GalCer (FIG. 1C)
Protocol: Culture supernatants were collected and IL-2 expression expression analyzed with IL-2 dependant cell line CTLL-2. Data are means±SD of triplicate cultures.
as §1, with “Phosphatidylethanolamine and DPPE-PEG bind to CD1d and prevent iNKT cell activation (2-5). To determine whether activation of iNKT cells by α-GalCer could specifically be inhibited by DPPE-PEG, splenocytes were incubated with α-GalCer (100 ng/ml) or plate-bound anti-CD3. […] FIGS.” for “FIGS.”, “samples. […] Culture supernatants were collected and IL-2 expression expression analyzed with IL-2 dependant cell line CTLL-2. Data are means±SD of triplicate cultures.” for “samples.”
We also tested the ability of DPPE-PEG350 to block the iNKT cell hybridoma line DN32, activation by α-GalCer. DN32 cells were loaded with 200 μg/ml of DPPE-PEG, and stimulated with titrating dose of α-GalCer. […]

OVA-induced AHR = assay: OVA-induced model of airway hyperreactivity (AHR); format: in vivo, BALB/c mice; settings: for number of cells (eosinophils, lymphocytes, macrophages) in BAL fluid: versus OVA-immunized control group, BAL 3 h after airway measurements (FIG. 2D); for histological examination of H&E-stained lung sections: OVA-immunized mice, compared with saline (negative) control (data not shown); for development of methacholine-induced AHR (PenH, whole-body plethysmograph): single dose 250 μg i.v., 1 day before OVA challenge, OVA-immunized mice (FIG. 2B)
Protocol: DPPE (250 μg) was injected i.v. on day 8 and AHR was measured on day 12. Reagents. Anti-CD3 mAb was purchased from BD PharMingen (San Diego, Calif.). α-Galactosylceramide (α-[…]7000) was purchased from Axxora LLC (San Diego, Calif.). DPPE-PEG. (1,2-Dipalmitoyl-sn-Glycero-3-Phosphoethanolamine-N-[Methoxy(Polyethylene glycol)-350]) (Ammonium Salt) (PEG350) was purchased from Avanti Polar Lipids, INC (Alabaster, Ala.). We thank A. Bendelac for the DN32.D3 hybridoma cells. To induce AHR, mice were immunized intraperitoneally with 50 μg of LPS free OVA (Worthington Biochemical Corp., NJ) in 2 mg of alum in volume of 0.5 ml. Ten days later mice were lightly anesthetized with methoxoflurane and challenged with i.n. OVA (50 μg) on 3 consecutive days. Induction of AHR and measurement of airway responsiveness-AHR responses were assessed by methacholine-induced airflow obstruction in conscious mice placed in a whole-body plethysmograph (Buxco Electronics, Troy, N.Y.) as described previously 15. In some experiments AHR was assessed by invasive measurement of airway resistance, in which anesthetized and tracheostomized mice were mechanically ventilated using a modified version of a described method 36. Aerosolized methacholine was administered for 20 breaths in increasing concentrations (1.25, 2.5, 5 and 10 mg/ml of methacholine). We continuously computed RL and Cdyn by fitting flow, volume and pressure to an equation of motion. Collection and analysis of BAL fluid-Mice were lethally anesthetized with phenobarbital 450 mg/kg i.p. The trachea was cannulated and the lungs were lavaged three times with 0.3 ml of PBS, and the collected fluid was pooled. Cell counts and analysis of the BAL was performed as described (15). […] In this model, an asthma-like phenotype with AHR, eosinophilic airway inflammation and mucus hypersecretion is induced by systemic sensitization with OVA followed by intrapulmonary challenge with OVA (FIG. 2A).

[4] = test system: OVA-specific Th2 responses; assay: Restimulation of bronchial lymph node cells of treated mice with OVA in vitro, cytokine ELISA; format: in vivo, BALB/c mice
Protocol: Bronchial lymph nodes were removed from Peg treated or PBS treated mice and restimulated with 100 μg of OVA in vitro. After 72 hrs supernatants were collected and cytokine production analyzed by ELISA. ELISA data are representative of three separate experiments (n=4) and are shown as mean±SD for triplicate samples. Restimulation of lymph node cells in vitro. Cells isolated from lymph nodes of OVA-primed mice were restimulated in vitro (5×10^5 cells per well in a 96-well plate) with various concentrations of OVA. Supernatants were collected after 4 days and assayed for IL-4 and IFN-γ by ELISA as previously described (15). Cytokine ELISAs—Cytokine secretion following in vitro challenge with OVA and control peptides were determined by ELISA as described before (15). Briefly, the following monoclonal antibodies R4-6A2 and XMG1.2-biotin for IFN-γ and 11B11 and BVD6-24G2-biotin for IL-4 were used for capture and detection. […] Bronchial lymph nodes were removed from Peg treated or PBS treated mice and restimulated with 100 μg of OVA in vitro. After 72 hrs supernatants were collected and cytokine production analyzed by ELISA. ELISA data are representative of three separate experiments (n=4) and are shown as mean±SD for triplicate samples. Since treatment with DPPE-PEG350 inhibited the development of AHR, we next asked if administration of the CD1d-dependent antagonist prior to airway challenge altered systemic OVA-specific Th2 responses. Bronchial lymph node cells were isolated from OVA sensitized mice treated with either DPPE-PEG350 or PBS, and restimulated in vitro with 100 μg/ml of ovalbumin a day after induction of AHR. […] No OVA-specific cytokine secretion was seen if the animals had not been sensitized with OVA on day 0 (data not shown).

CD1d = settings: references 2-5; cited from earlier work
iNKT cell = settings: references 2-5; cited from earlier work
[5] = test system: contact hypersensitivity (CHS); settings: Nieuwenhuis et al.; cited from earlier work
[6] = bronchial lymph node cells, 100 μg/ml ovalbumin, versus PBS treated group (FIG. 3)

Molecule | secretion of IL-4 by α-GalCer-stimulated iNKT cells ([1]; splenocytes, α-GalCer 100 ng/ml, increasing concentrations of DPPE-PEG, 48 h, ELISA (FIG. 1A/1B)) | iNKT cells cytokine release compared to anti-CD3 activated T cells (preference) ([1]; α-GalCer-stimulated versus anti-CD3-stimulated splenocytes (FIGS. 1A and B)) | cytokine production by anti-CD3 activated T cells [2] | IL-2 release from DN32 iNKT cells [3] | AHR by direct measurement of airway resistance (RL) and dynamic compliance (Cdyn) (OVA-induced AHR; 250 μg i.v., anesthetized, tracheostomized, mechanically ventilated mice (FIG. 2C)) | number of cells (eosinophils, lymphocytes, macrophages) in BAL fluid (OVA-induced AHR; 250 μg i.v.) | histological examination of H&E-stained lung sections (OVA-induced AHR) | development of methacholine-induced AHR (PenH, whole-body plethysmograph) (OVA-induced AHR) | IL-4 secretion to OVA recall [4, 6] | IL-5 secretion to OVA recall [4, 6] | IL-13 secretion to OVA recall [4, 6] | ova-specific secretion of IFN-γ after in vitro re-challenge ([4]; sensitized and DPPE-PEG treated animals) | binding to CD1d (CD1d) | iNKT cell activation (iNKT cell) | dermatitis in the CHS model [5] | development of OVA specific Th2 responses ([4]; bronchial lymph nodes restimulated with 100 μg of OVA, 72 hrs (FIG. 3))
1,2-Dipalmitoyl-sn-Glycero-3-Phosphoethanolamine-N-[Methoxy(Polyethylene glycol)-350] [DPPE-PEG350] | inhibited | preferentially inhibited | no or minimal effect | inhibited | confirmed | significantly reducing | no significant differences | completely prevented | No significant difference | No significant difference | No significant difference | did not affect | bind | prevent | blocked | –
CCCCCCCCCCCCCCCC(=O)OC[C@H](COP(=O)(O)OCCN)OC(=O)CCCCCCCCCCCCCCC [DPPE, 1,2-Dipalmitoyl-sn-Glycero-3-Phosphoethanolamine] | – | – | – | – | – | almost completely abrogated | minimal mucus production and negligible cellular infiltration | completely inhibited | – | – | – | – | – | – | – | does not inhibit
Phosphatidylethanolamine [reference compound] | – | – | – | – | – | – | – | – | – | – | – | – | bind | prevent | – | –

From patent US20100035843A1, “METHODS FOR ATTENUATING ALLERGEN-INDUCED AIRWAY HYPERREACTIVITY USING CD1D DEPENDENT ANTAGONISTS” (THE GENERAL HOSPITAL CORPORATION, priority 2007, published 2010)
